Data reported in patent US4975531A, “Sakyomicin E and the derivatives thereof, a process for the preparation thereof and the use thereof” (Behringwerke Aktiengesellschaft, priority 1988, dated 1990).

What was measured:
L1210 cells = test: Proliferation test (MTT assay), L1210; format: cell-based, murine; conditions: 72 hours
Experimental: (§1) The cytotoxic activity of the compounds according to the invention was measured in two different in vitro test systems.
(§2) 1. Proliferation test (MTT assay)
(§3) In this test system, the number of live or dead cells after incubation with the test substance for 3 days is measured by means of the NADP-dependent reduction of a colorless substrate to give a deep red-colored final product, which occurs only in live cells.
(§4) Control experiments contain merely growth medium in place of the test substance. Quadruplicate determinations were set up for each test substance and for the controls. After incubation for 65 hours, 50 μl of an MTT solution (2.5 mg/ml in phosphate buffered saline) are added. In the presence of live cells MTT is reduced to a dark-red insoluble formazan pigment. […] The insoluble pigment is dissolved by addition of 100 μl of DMSO, and the extinction of the solution produced in this way is subsequently measured for each well in a Multiscan photometer 340 CC from Flow at a wavelength of 492 nm.

HT 29 cells = test: Proliferation test (MTT assay), HT 29; format: cell-based, human; conditions: HT 29, MTT, 72 hours
Experimental: as §1, §2, §3, §4

A 549 cells = test: Proliferation test (MTT assay), A 549; format: cell-based, human; conditions: A 549, MTT, 72 hours
Experimental: as §1, §2, §3, §4

tumor cell colonies = test: Stem Cell Test (inhibition of tumor cell colony formation in soft agar); format: cell-based; conditions: cell line not given; for IC50 Cont. incubation (colony formation in soft agar): continuous incubation
Experimental: as §1
This test system examines the ability of the test substance to inhibit the formation of tumor cell colonies in soft agar. The test was carried out by the method described by Hamburger and Salmon, with the modifications described below. Conditioned medium was replaced by McCoy 5A medium. […] The cells were incubated with various concentrations of the test substance at 37° C. for 1 hour. The cells were then washed twice with McCoy 5A medium and then plated out as the upper layer in a two-layer agar system in accordance with the Hamburger and Salmon method. Additional parallel experiments were carried out using a continuous incubation time, in which case various concentrations of the test substance were mixed with the upper agar layer before plating out the cells.
After this time, colonies with a diameter of (greater than) 60 μm were counted using an image analysis system (FAS II, Bausch and Lomb).
The IC50 for continuous and one-hour incubation was determined from the dose-effect plot (Tab. 2).

Strep. faecalis = test: antibacterial effect in vitro, agar plate diffusion test, Strep. faecalis; format: cell-based; conditions: agar plate diffusion test (10 μl/test disk 6 mm in diameter)
Experimental: (§5) Examples of various organisms which emerge as sensitive to an inhibitory concentration of greater than 10 μg/ml are: E. coli, Staph. aureus, Strep. faecalis.

solubility = format: physicochemical
E. coli = test: antibacterial effect in vitro, agar plate diffusion test, E. coli; format: cell-based; conditions: agar plate diffusion test (10 μl/test disk 6 mm in diameter)
Experimental: as §5

Staph. aureus = test: antibacterial effect in vitro, agar plate diffusion test, Staph. aureus; format: cell-based; conditions: agar plate diffusion test (10 μl/test disk 6 mm in diameter)
Experimental: as §5

[1] = test system: human and animal tumor cells; test: tumor-inhibiting effect in vitro; format: cell-based
[2] = test system: Gram-positive and Gram-negative bacteria; test: antibacterial effect in vitro against Gram-positive and Gram-negative bacteria, agar plate diffusion test; format: cell-based
Experimental: as §5

stability = format: physicochemical

Substance | IC50 L1210 (concentration which just kills 50% of the cells) (L1210 cells) [µg/mL] | IC50 HT 29 (concentration which just kills 50% of the cells) (HT 29 cells) [µg/mL] | IC50 A 549 (concentration which just kills 50% of the cells) (A 549 cells) [µg/mL] | IC50 1 h incubation (colony formation in soft agar) (tumor cell colonies) | IC50 Cont. incubation (colony formation in soft agar) (tumor cell colonies) [µg/mL] | inhibitory concentration, Strep. faecalis (Strep. faecalis) | solubility in alkanes (solubility; alkanes) | solubility in ethyl acetate, methanol, acetone, DMSO and chloroform (solubility; ethyl acetate, methanol, acetone, DMSO and chloroform) | inhibitory concentration, E. coli (E. coli) | inhibitory concentration, Staph. aureus (Staph. aureus) | tumor-inhibiting effect in vitro [1] | antibacterial effect against Gram-positive and Gram-negative bacteria [2] | stability in solution (stability; in solution in the pH range from 3 to 9, especially from 5 to 8) | stability in the solid state (stability; solid state)
2,8,4'-tri-O-acetylsakyomicin E | 0.29 | 0.11 | 0.37 | above 1.0 μg/ml | 0.30 |  |  |  |  |  |  |  |  | 
sakyomicin E | 0.50 | 0.08 | 0.30 | 3.0 µg/mL | 0.24 | greater than 10 μg/ml | insoluble or only very slightly soluble | readily soluble | greater than 10 μg/ml | greater than 10 μg/ml | tumor-inhibiting effect | exhibits an antibacterial effect | stable | stable
